Test results reported in article PMC8155176, “Reversible modulation of circadian time with chronophotopharmacology” (Nature Communications, 2021).
“Also recorded” adds a separate entry of the source. Read-outs that look alike come from different tables or passages of the source.

Experiments:
CKIα = molecular target: T1, CKIα (Homo sapiens, UniProt P48729); experiment: In vitro kinase assay (Kinase Glo), CKIα; format: biochemical; conditions: for light dependence of CKIα inhibition (in words): UV light 365 nm vs dark; for fold difference in CKIα inhibition between dark and UV-irradiated sample: trans vs cis-enriched (365 nm), 5 is stronger under light, the others weaker
T1 construct: purchased Invitrogen PV3850
T1 sequence (P48729 whole entry): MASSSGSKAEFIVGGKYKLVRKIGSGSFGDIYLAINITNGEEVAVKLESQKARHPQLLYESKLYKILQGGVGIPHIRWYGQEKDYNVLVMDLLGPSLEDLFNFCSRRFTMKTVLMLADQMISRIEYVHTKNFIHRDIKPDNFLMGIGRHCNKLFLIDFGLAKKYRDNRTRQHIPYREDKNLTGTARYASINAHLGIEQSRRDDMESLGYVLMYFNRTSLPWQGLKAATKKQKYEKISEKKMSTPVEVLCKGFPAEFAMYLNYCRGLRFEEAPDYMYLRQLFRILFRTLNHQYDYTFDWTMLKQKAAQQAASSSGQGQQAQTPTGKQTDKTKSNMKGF
Experimental: A stock solution of 7.4 mM in DMSO was prepared and thermally adapted by heating to c.a. 100 °C for 1 min. Two series of eight samples were prepared with consecutive three-time dilutions from the stock solution. One of the series (‘dark’ samples) was prepared in dark Eppendorf tube, the other series (‘light’ samples) was pre-irradiated with UV light (365 nm, UV lamp Spectroline, ENB-280/FE, 1 × 8 Watt) for 45 min. For compound 9, 1 mM solution in DMSO was thermally adapted by heating to 80 °C for 2 min and split into two vials. One vial was kept in the dark and the other was irradiated with green light (530 nm, 3x Nichia NCSG219B-V1, 3 × 550 mW, Sahlmann Photochemical Solutions) for 60 min. Both dark-kept and irradiated samples were subjected to 8-point 3-fold dilutions. All the solutions were applied to the well plate under a red lamp in the dark room in order to prevent ambient-light-induced photo-isomerization.
The assays were performed on a white, solid-bottom 384-well plates. The total volume for the reaction is 10.5 µl. Firstly, a solution of CKI and peptide was added to the bottom of the well (9 µL). Next, a corresponding solution of the compound (0.5 μL, final 5% DMSO) followed by 50 μM ATP solution (1 μL) were pipetted into the upper corners of each well. The enzymatic reaction was started by spinning down the plate (1800 x g, 2 min).
By employing this method, all reactions were started at the same time, minimizing variance between different samples. Incubation for 3 h at 30 °C or 2 h at 37 °C allowed for the enzymatic phosphorylation of the substrate peptide. As the reaction started, the wells with ‘light’ samples were irradiated with UV light or kept in dark in case of experiment with compound 9. ‘Dark’ (0 min pre-irradiation) wells were covered with an aluminum sticker from the beginning. After the incubation, 10 μL Kinase Glo® (Promega) was applied into the wells and the luminescent signal was recorded by a plate reader (BioTek Synergy H1 or Cytation).
The total volume for the reaction was 10.5 µl. The reaction mixture contained the following: for CKIδ, 4 ng/µl CKIδ (14-520, Eurofins), 50 µM peptide substrate RKKKAEpSVASLTSQCSYSS corresponding to human PER2 Lys659-Ser674, and CKI buffer (40 mM Tris, 10 mM MgCl2, 0.5 mM DTT, 0.1 mg/ml BSA, pH7.4); for CKIα, 1 ng/µl CKIα (PV3850, Invitrogen), 50 µM CKI peptide substrate (60547-1, Anaspec), and CKI buffer.
The data obtained from the in vitro kinase assay was analyzed using GraphPad software, in which the luminescence outcome is normalized. Normalization is done using a luminescent output of the control that contained high concentration of longdaysin (370 µM) as 100% inhibition and DMSO for 0% inhibition. In all graphs, a dose-response fit was used to obtain

U2OS cells = experiment: Circadian period assay in Bmal1-dLuc U2OS reporter cells; format: cell-based, human
Experimental: Next, we tested if the observed light-dependent CKIα inhibition translates into photomodulation of the circadian period in human U2OS cells (Fig. 2d). The Bmal1-dLuc reporter cell line contains the coding sequence of destabilized luciferase driven by the Bmal1 gene promoter sequence. The cell culture medium for luminescence recording includes a high concentration of luciferin (0.2 mM), a substrate for luciferase, which strongly absorbs UV light (Supplementary Fig. 30). […] As the circadian period change is directly correlated with the potency and concentration of the inhibitor[10], the cells were treated with photoswitchable modulators using a broad range of concentrations.
In comparison to the kinase assay, the direct use of UV light for preventing a thermal back-isomerization of the cis-isomer was not feasible due to the cell-damaging effect and the presence of luciferin in the medium. Therefore, the modulators were kept in the dark or photo-isomerized in DMSO prior to the addition, without further irradiation during the circadian assay. All three modulators lengthened the period in the U2OS cells both in the dark and upon irradiation (Fig. 2d). […] Altogether, based on the efficient generation of the cis-isomer under irradiation, retained potency and promising light-modulation of CKIα inhibition, the meta-substituted modulator 4 was identified as representing lead substitution pattern for further investigation.
Stable U2OS reporter cells harboring Bmal1-dLuc reporter were suspended in phenol red-free culture medium [DMEM (D2902, Sigma) supplemented with 10% fetal bovine serum, 3.5 mg/mL D-glucose, 3.7 mg/mL sodium bicarbonate, 0.29 mg/mL L-glutamine, 100 units/mL penicillin, and 100 µg/mL streptomycin] and plated onto a white, solid-bottom 384-well plates at 30 µL (3000 cells) per well. After 2 days, 40 µL of phenol red-free explant medium [DMEM (D2902, Sigma) supplemented with 2% B27 (Gibco), 10 mM HEPES, 3.5 mg/mL D-glucose, 0.38 mg/mL sodium bicarbonate, 0.29 mg/mL L-glutamine, 100 units/mL penicillin, 100 µg/mL streptomycin, and 0.2 mM luciferin; pH 7.2] was dispensed into each well, followed by the application of 0.5 μL of compounds (dissolved in DMSO; final 0.7% DMSO; pre-irradiated with UV for 60 min, white LED for 10 min, and/or green LED for 60 min when indicated). The plate was covered with an optically clear film, and subjected to irradiation with 530 nm LED lamp (3 × 550 mW, λmax = 530 nm, FWHM 36 nm, Sahlmann Photochemical Solutions) or 400 nm LED lamp (3 × 1000 mW, λmax = 400 nm, FWHM 11.9 nm, Sahlmann Photochemical Solutions) from 12 cm distance for 30 min. Compound handling and irradiation were conducted in a dark room under red lamp illumination. Luminescence was recorded every 100 min in a microplate reader, Infinite M200Pro (Tecan). For the phase control experiments, cellular light irradiation was performed in a dark 32 °C room and luminescence was recorded in a microplate reader Synergy H1 (BioTek) placed in the same room, to avoid possible effect of transient temperature change on the phase. Circadian period and phase were determined from luminescence rhythms by a curve fitting program MultiCycle (Actimetrics). Data from the first day was excluded from analysis, because of transient changes in luminescence upon medium change. Statistical significance was evaluated using two-way analysis of variance (ANOVA) followed by a Sidak’s multiple comparisons test or one-way ANOVA followed by a Tukey’s multiple comparisons test using Prism software (GraphPad Software).

[1] = Chemical stability under dark and irradiation conditions followed by LCMS; format: physicochemical; conditions: 40 µM in kinase assay buffer or cell culture medium, dark, 365 nm 3 h, 400 nm 30 min
Experimental: LCMS traces of stability studies
Supplementary Figure 8. Chemical stability of compound 3 under dark and irradiation conditions followed by LCMS. All the samples were prepared as 40 µM solution in buffer or cell culture medium. ‘Buffer’ and ‘medium’ samples were injected immediately upon dissolving compound 3, ‘buffer_3h_dark’ was injected after 3 h of keeping the solution in dark, ‘buffer_3h_365nm’ after irradiation of the sample for 3 h with UV light in kinase assay buffer, and ‘medium_30min_400nm’ after 30 min of irradiation with 400 nm in cell culture medium. The trans-isomer was followed at the retention time of 10.41-10.47 min and the cis-isomer at the retention time of 8.84-8.90 min. Mass spectra of both isomers in different […]
(1 picture or pasted object on this page, not shown here)

[2] = Solubility test in kinase assay buffer and cell culture medium; format: physicochemical
Experimental: Solubility studies were performed in kinase assay buffer and cell culture medium. Half of the solutions of the compounds in DMSO was thermally adapted (‘Dark’) and the other half was irradiated for 1 h with UV light (λmax = 365 nm, ‘Light’) green light in case of 9 (λmax = 530 nm, ‘Light’). Solubility is indicated in the Supplementary Table 1. […]
precipitation were excluded from the dose-response curves in the enzymatic assay .
Supplementary Table 1. Solubility of the photos witchable compounds in the highest concentrations that were used in the enzymatic assay.
Kinase assay buffer Cell culture medium […]

[3] = irradiated with UV light (365 nm) before and during the assay, cis-enriched, read-out: CKIα IC50, light
[4] = thermally adapted trans-isomer kept in the dark, read-out: CKIα IC50, dark

Structure (SMILES)	IC50 (CKIα; [3]) [µM]	IC50 (CKIα; [4]) [µM]	fold difference in CKIα inhibition between dark and UV-irradiated sample (CKIα)	light dependence of CKIα inhibition (in words) (CKIα)	period lengthening in U2OS cells (U2OS cells; 24 μM) [h]	light-modulation of period lengthening (U2OS cells; 24 μM, UV pre-irradiated vs dark)	chemical stability (reduction or oxidation of the azo group) [1]	light-induced deactivation of period lengthening (U2OS cells; 3 μM, UV pre-irradiated vs dark)	light-induced change of period lengthening (U2OS cells; 72 μM, UV pre-irradiated vs dark)	solubility in aqueous media (in words) [2]	effect of UV light irradiation on period lengthening (U2OS cells; UV (365 nm) pre-irradiated)	recovery of biological activity upon back-isomerization with white light (U2OS cells; UV light followed by white light)	period lengthening effect under dark conditions (U2OS cells; dark)	influence of green or violet light on the period change (U2OS cells; control experiment)
CC(C)n1cnc2c(NCc3cccc(/N=N/c4ccccc4)c3)ncnc21 [Compound 4]	8.6	1.9	4.5 fold	substantial light-induced inactivation			Products of reduction or oxidation were not observed	ca. 2 h						
CC(C)n1cnc2c(NCc3ccccc3/N=N/c3ccccc3)ncnc21 [Compound 5]	54	96					Products of reduction or oxidation were not observed		weak activation	solubility issues at high concentrations				
COc1ccc(/N=N/c2cccc(CNc3ncnc4c3ncn4C(C)C)c2)cc1 [Compound 6]	13.3	2.8	5 fold				Products of reduction or oxidation were not observed			increased solubility				

The next lines start with results.

IC50 (CKIα; [3]) [µM]	IC50 (CKIα; [4]) [µM]	fold difference in CKIα inhibition between dark and UV-irradiated sample (CKIα)	Structure (SMILES)	light dependence of CKIα inhibition (in words) (CKIα)	period lengthening in U2OS cells (U2OS cells; 24 μM) [h]	light-modulation of period lengthening (U2OS cells; 24 μM, UV pre-irradiated vs dark)	chemical stability (reduction or oxidation of the azo group) [1]	light-induced deactivation of period lengthening (U2OS cells; 3 μM, UV pre-irradiated vs dark)	light-induced change of period lengthening (U2OS cells; 72 μM, UV pre-irradiated vs dark)	solubility in aqueous media (in words) [2]	effect of UV light irradiation on period lengthening (U2OS cells; UV (365 nm) pre-irradiated)	recovery of biological activity upon back-isomerization with white light (U2OS cells; UV light followed by white light)	period lengthening effect under dark conditions (U2OS cells; dark)	influence of green or violet light on the period change (U2OS cells; control experiment)
4.5	3.6		CC(C)n1cnc2c(NCc3ccc(/N=N/c4ccccc4)cc3)ncnc21 [Compound 3]	no obvious light-dependent changes of CKIα inhibition	4	no light-modulation	Products of reduction or oxidation were not observed							
9.3	2.4	four times less potent	CC(C)n1cnc2c(NCc3cccc(/N=N/c4c(F)cccc4F)c3)ncnc21 [Compound 7]				Products of reduction or oxidation were not observed; also recorded: both chemical and photochemical stability				suppressed by UV light irradiation; also recorded: most pronounced period lengthening deactivation	partial recovery	strong period lengthening effect	
4.3			CC(C)n1cnc2c(NCc3cccc(C(F)(F)F)c3)ncnc21 [longdaysin, reference compound]	negligible effect of UV irradiation on the potency										negligible influence
